Converted amounts (≈) assume the structure as drawn. Where two headings read alike, the source gives them in different places.
Experiments:
in vivo [1] = details: both, cynomolgus monkey, po; for AUC(0-inf): AUCINF—obs
VV = details: mouse, in vivo; cited from earlier work
physchem [2] = details: 70 °C, aqueous with cosolvent or surfactant or cyclodextrin
in vivo [3] = details: New Zealand White, rabbit, po, 100 mg/kg
[4] = both, cynomolgus monkey, in vivo; for AUCINF—obs / Cmax / CL / T1/2 / Tmax: iv
physchem [5] = details: thermodynamic from solid
variola viruses = details: in vitro, read-out: 50% effective concentration [EC50], inhibition of virus replication; cited from earlier work
[6] = rabbit, in vivo
in vivo [7] = details: both, cynomolgus monkey; for AUC(0-inf): AUCINF—obs; for bioavailability: cynomolgus, po
[8] = in vivo
[9] = cynomolgus monkey, in vivo
physchem [10] = details: 37 °C, aqueous with cosolvent or surfactant or cyclodextrin, range of ST-246 solubilized by cyclodextrin
[11] = both, cynomolgus monkey, in vivo, po
[12] = New Zealand White, rabbit, in vivo
CV = details: in vivo; cited from earlier work
camelpox = details: read-out: 50% effective concentration [EC50], inhibition of virus replication; cited from earlier work

## O=C(NN1C(=O)C2C3C=CC(C4CC34)C2C1=O)c1ccc(C(F)(F)F)cc1 (stereo not shown) [ST-246, 4-trifluoromethyl-N-(3,3a,4,4a,5,5a,6,6a-octahydro-1,3-dioxo-4,6-ethenocycloprop[f]isoindol-2(1H)-yl)-benzamide]
In vivo [1]; 0.3 mg/kg
  CL/F: 15.3 mL/min/kg
  Tmax: 2.5 h
  half-life: 4 ± 1.3 h
  AUC(0-inf): 380 ± 149 ng·h/mL
  Cmax: 53.8 ± 27.5 ng/mL
In vivo [1]; 3 mg/kg
  AUC(0-t): 3860 ± 862 ng·h/mL
  CL/F: 11.2 mL/min/kg
  Tmax: 3.3 h
  half-life: 9.9 ± 6 h
  AUC(0-inf): 4530 ± 490 ng·h/mL
  Cmax: 496 ± 145 ng/mL
In vivo [1]; 10 mg/kg
  AUC(0-t): 10300 ± 3060 ng·h/mL
  CL/F: 15.3 mL/min/kg
  Tmax: 3.8 h
  half-life: 7 ± 0.9 h
  AUC(0-inf): 11800 ± 3670 ng·h/mL
  Cmax: 1080 ± 279 ng/mL
In vivo [1]; 20 mg/kg
  AUC(0-t): 13400 ± 8020 ng·h/mL
  CL/F: 20.1 mL/min/kg
  Tmax: 3.2 h
  half-life: 7.2 ± 2.3 h
  AUC(0-inf): 15500 ± 9150 ng·h/mL
  Cmax: 1480 ± 864 ng/mL
In vivo [1]; 30 mg/kg
  AUC(0-t): 20500 ± 8050 ng·h/mL
  CL/F: 16.5 mL/min/kg
  Tmax: 3.6 h
  half-life: 17.7 ± 13.8 h
  AUC(0-inf): 31900 ± 7360 ng·h/mL
  Cmax: 1990 ± 873 ng/mL
VV
  tail lesions: significantly reduced
Physchem [2]
  solubility: 21200 µg/mL (≈ 56.4 mM)
In vivo [3]; both
  AUC(0-t): 19800 ng·h/mL
  CL/F: 120 mL/min/kg
  Cmax: 2860 ng/mL
  half-life: 3.7 h
In vivo [3]; female
  AUC(0-t): 8180 ng·h/mL
  Cmax: 1230 ng/mL
  half-life: 1.3 h
In vivo [3]; male
  AUC(0-t): 26400 ng·h/mL
  Cmax: 4480 ng/mL
  half-life: 6 h
[4]
  Cmax higher for 4 hour vs 6 hour infusions: approximately 50%
  exposure higher for 4 hour vs 6 hour infusions: approximately 20%
  terminal elimination half-life: 9.1 h
[4]; 1 mg/kg
  AUCINF—obs: 1940 ± 460 ng·h/mL
  Cmax: 384 ± 112 ng/mL
[4]; 3 mg/kg
  AUCINF—obs: 5830 ± 870 ng·h/mL
  Cmax: 1050 ± 190 ng/mL
[4]; 10 mg/kg
  CL: 7.15 ± 1.23 mL/min/kg
  T1/2: 8.9 ± 2.5 h
[4]; 15 mg/kg
  AUCINF—obs: 48700 ± 7500 ng·h/mL
  Cmax: 9080 ± 950 ng/mL
[4]; 20 mg/kg
  AUCINF—obs: 47900 ± 6100 ng·h/mL
  CL: 7.22 ± 0.883 mL/min/kg
  Cmax: 7480 ± 400 ng/mL
  Tmax: 6 h
[4]; 30 mg/kg
  AUCINF—obs: 87200 ± 14600 ng·h/mL
  CL: 6.03 ± 1.02 mL/min/kg
  Cmax: 13900 ± 1300 ng/mL
  T1/2: 6.9 ± 0.8 h
  Tmax: 6 h
Physchem [5]; oil or lipid, absolute solubility of ST-246 in oils
  solubility: < 5000 µg/mL
Physchem [5]; pH 6.8, aqueous buffer, ST-246 Solubility
  solubility: < 100 µg/mL
Physchem [5]; simulated gastric fluid, ST-246 Solubility
  solubility: < 100 µg/mL
Physchem [5]; water, ST-246 Solubility
  solubility: < 100 µg/mL
Variola viruses
  EC50: ≤ 0.07 µM
[6]; both, New Zealand White, iv, 60 mg/kg
  time to full recovery: 30 to 60 min
[6]
  tolerability: well-tolerated
[6]; 3 mg/kg
  tolerability: well-tolerated
[6]; iv, 1 mg/kg
  tolerability: well tolerated
[6]; iv, 60 mg/kg
  clinical signs: lethargy, labored breathing and narcosis
In vivo [7]; iv, 1 mg/kg
  AUC(0-t): 1880 ± 455 ng·h/mL
  AUC(0-inf): 1940 ± 459 ng·h/mL
  Cmax: 384 ± 112 ng/mL
  Tmax: 4 h
In vivo [7]; iv, 1 mg/kg, CL
  clearance: 8.95 mL/min/kg
In vivo [7]; iv, 1 mg/kg, T1/2
  half-life: 6.6 ± 6 h
In vivo [7]; iv, 3 mg/kg
  AUC(0-t): 5650 ± 784 ng·h/mL
  AUC(0-inf): 5830 ± 870 ng·h/mL
  Cmax: 1050 ± 185 ng/mL
  Tmax: 4 h
In vivo [7]; iv, 3 mg/kg, CL
  clearance: 8.72 mL/min/kg
In vivo [7]; iv, 3 mg/kg, T1/2
  half-life: 8.5 ± 3.2 h
In vivo [7]; iv, 10 mg/kg
  AUC(0-t): 21100 ± 3450 ng·h/mL
  AUC(0-inf): 21300 ± 3400 ng·h/mL
  Cmax: 4400 ± 935 ng/mL
  Tmax: 4 h
In vivo [7]; iv, 10 mg/kg, CL
  clearance: 7.97 mL/min/kg
In vivo [7]; iv, 10 mg/kg, T1/2
  half-life: 8.6 ± 1.3 h
In vivo [7]; iv, 15 mg/kg
  AUC(0-inf): 32500 ± 5700 ng·h/mL
  Cmax: 7360 ± 1470 ng/mL
  Tmax: 4 h
In vivo [7]; iv, 15 mg/kg, CL
  clearance: 5.85 mL/min/kg
In vivo [7]; iv, 15 mg/kg, T1/2
  half-life: 9.1 ± 2.6 h
In vivo [7]; iv, 20 mg/kg
  AUC(0-inf): 59600 ± 10100 ng·h/mL
  Cmax: 11800 ± 2000 ng/mL
  Tmax: 4 h
In vivo [7]; iv, 20 mg/kg, CL
  clearance: 5.88 mL/min/kg
In vivo [7]; iv, 20 mg/kg, T1/2
  half-life: 8.7 ± 2.5 h
In vivo [7]; iv, 30 mg/kg
  AUC(0-inf): 100000 ± 18000 ng·h/mL
  Cmax: 20100 ± 4200 ng/mL
  Tmax: 4 h
In vivo [7]; iv, 30 mg/kg, CL
  clearance: 5.12 mL/min/kg
In vivo [7]; iv, 30 mg/kg, T1/2
  half-life: 7.8 ± 0.7 h
In vivo [7]; iv, clearance
  clearance: ~8.33 mL/min/kg
In vivo [7]; iv, elimination half-lives
  half-life: 6.6 to 9.1 h
In vivo [7]; iv, terminal elimination half-life
  half-life: 6.6 to 8.6 h
In vivo [7]; terminal elimination half-life
  half-life: 8.9 h
In vivo [7]; 3 mg/kg
  bioavailability: 77%
In vivo [7]; 20 mg/kg
  bioavailability: 31%
In vivo [7]; 30 mg/kg
  bioavailability: 31%
[8]; female, CD-1, mouse, iv, 75 mg/kg
  time to recovery: 2 to 3 h
[8]; mouse
  tolerability: well-tolerated
[8]; mouse, iv, 34 mg/kg
  toxicity after bolus IV injection: some dose-related toxicity and mortality
[8]; mouse, iv, 75 mg/kg
  clinical signs: unsteady gait
[8]; mouse, iv, 100 mg/kg
  clinical signs: clinical signs of labored breathing and lethargy
[9]; both, 30 mg/kg
  onset of tremors after end of infusion: ≤ 13 min
  resolution of tremors after end of infusion: approximately 2 hours
[9]
  clinical signs: no clinical signs were observed
[9]; 20 mg/kg
  clinical signs: Tremors were not observed
Physchem [10]
  solubility: 1500 to 11000 µg/mL (≈ 3.99 to 29.2 mM)
[11]
  increase of exposure (AUCinf-obs): 84 fold
  increase of maximum plasma concentration (Cmax): 37 fold
[11]; 10 mg/kg
  HL_Lambda_z: 7.0 ± 0.9 h
[11]; 20 mg/kg
  HL_Lambda_z: 7.2 ± 2.3 h
[12]; both, iv, 3 mg/kg
  AUC0-24 hr: 3390 ± 1070 ng·h/mL
  CL: 16.1 ± 6.05 mL/min/kg
[12]; both, iv, 30 mg/kg
  mean maximum plasma concentration: 38.5 µg/mL
[12]; female, 3 mg/kg
  peak plasma concentration: 4345 ng/mL
[12]; male, 3 mg/kg
  peak plasma concentration: 7225 ng/mL
CV
  preventing or reducing mortality: highly effective in preventing or reducing mortality
  toxicity in animal model: nontoxic
camelpox
  EC50: ≤ 0.07 µM
